Patent US20260108641A1, “PHYTIC ACID-BASED TERNARY COMPLEX BIOMIMETIC NANOMATERIAL, AND PREPARATION METHOD AND USE THEREOF” (THE SECOND HOSPITAL OF TIAN JIN MEDICAL UNIVERSITY, priority 2023, published 2026)

Key:
[1] = test system: PC-3 tumor-bearing mouse model; assay: In vivo tumor inhibitory effect; parameters: species or system mice; conditions: day 14 after tail vein injection, controls PBS, CDDP, PA-Mn-BSA
Method: A PC-3 tumor-bearing mouse model was constructed. […] Tumor size was measured every other day for 14 consecutive days after injection to observe the tumor growth inhibitory effect in different groups. Tumors were dissected and collected from the mice on day 14 for size observation.

[2] = Safety evaluation, blood biochemical analysis; type: in vivo, Kunming mice; conditions: 24 hours after tail vein injection, versus PBS group
Method: Normal Kunming mice were selected, and PBS, CDDP, PA-Mn-BSA and PA-Mn/Pt-BSA were separately injected via the tail vein of the mice. Blood biochemical analysis was performed 24 hours later.

SMILES: [NH2][Pt]([NH2])([Cl])[Cl] [CDDP, cisplatin]
- tumor volume of dissected tumors [1]: smaller tumor volume than the PBS group
- level of alanine transaminase (ALT) [2]: significantly higher
- level of aspartate transaminase (AST) [2]: significantly higher
- level of blood urea nitrogen (BUN) [2]: significantly higher
- level of creatinine (CRE) [2]: significantly higher
